One block for each compound: values may come before it. The source made the active and inactive calls. The calls are words filed in the database; no cut-off is given here. Peptide text beside a SMILES is read from it. * marks the point of attachment. X1 = C[N+]1=C(/C=C/C=C2\N(CCCCCC(=O)*)c3ccccc3C2(C)C)C(C)(C)c2ccccc21
Columns and labels:
Cerebral artery [1] = assay: Vaso-constriction activity in male wistar rat middle cerebral artery assessed as arterial contraction; format: functional, tissue-based
[2] = biological target: T1, Type-1 angiotensin II receptor (Homo sapiens) (UniProt P30556); assay: Induction of human NLuc-tagged AT1R (unknown origin) internalization in HEK293 cells co expressing venus-MP using NanoGlo as substrate preincubated for 30 mins followed by substrate addition for 10 mins by BRET assay; format: functional
T1 sequence (whole entry): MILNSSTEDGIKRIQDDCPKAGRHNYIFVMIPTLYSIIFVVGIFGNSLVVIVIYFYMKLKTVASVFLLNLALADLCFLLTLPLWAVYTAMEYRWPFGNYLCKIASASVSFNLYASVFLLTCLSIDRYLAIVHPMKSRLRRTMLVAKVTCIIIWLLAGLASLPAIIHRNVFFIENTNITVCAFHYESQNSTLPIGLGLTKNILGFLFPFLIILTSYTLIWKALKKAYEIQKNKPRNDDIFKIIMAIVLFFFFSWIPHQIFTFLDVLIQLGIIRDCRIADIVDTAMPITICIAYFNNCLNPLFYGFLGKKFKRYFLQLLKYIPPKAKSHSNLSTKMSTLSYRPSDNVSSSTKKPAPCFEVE

[3] = biological target: T1, Type-1 angiotensin II receptor (Homo sapiens); assay: (§1) Agonist activity at Flag-tagged AT1R (unknown origin) extracted from HEK293T cell membrane co expressing YPET-ARRB1 assessed as beta-arrestin 1 recruitment using NanoGlo as substrate preincubated for 30 mins followed by substrate addition for 10 mins by BRET assay; format: functional, cell membranes
[4] = biological target: T1, Type-1 angiotensin II receptor (Homo sapiens); assay: (§2) Agonist activity at Flag-tagged AT1R (unknown origin) extracted from HEK293 cell membrane co expressing YPET-ARRB2 assessed as beta-arrestin 2 recruitment using NanoGlo as substrate preincubated for 30 mins followed by substrate addition for 10 mins by BRET assay; format: functional, cell membranes
Cerebral artery [5] = assay: Vaso-constriction activity in male wistar rat middle cerebral artery assessed as arterial contraction at 1 uM in presence of losartan; format: functional, tissue-based
[6] = Fluorescence property of compound in HEPES buffer assessed as quantum yield; format: physicochemical
Cerebral artery [7] = assay: Vaso-constriction activity in male wistar rat middle cerebral artery assessed as arterial contraction at 1 uM; format: functional, tissue-based
Cerebral artery [8] = assay: Vaso-constriction activity in male wistar rat middle cerebral artery assessed as arterial contraction at 10 nM; format: functional, tissue-based
[9] = biological target: T1, Type-1 angiotensin II receptor (Homo sapiens); assay: Agonist activity at AT1R (unknown origin) extracted from HEK293 cell membrane coexpressing NLuc and Venus-miniG assessed as miniGq protein recruitment at 1 uM using NanoGlo as substrate preincubated for 30 mins followed by substrate addition for 10 mins by BRET assay; format: functional, cell membranes; settings: time 40.0 min
[10] = biological target: T1, Type-1 angiotensin II receptor (Homo sapiens); assay: Binding affinity to human GFP-tagged AT1R (unknown origin) extracted from HEK293 cell membrane assessed as colocalization of AT1R in endocytic vesicles at 50 nM incubated for 30 mins by epifluorescence microscopic analysis; format: cell membranes; settings: filed as agonist
[11] = biological target: T1, Type-1 angiotensin II receptor (Homo sapiens); assay: as §2, with “recruitment at 1 uM by measuring maximum efficacy” for “recruitment”; format: functional, cell membranes; settings: filed as agonist
[12] = biological target: T1, Type-1 angiotensin II receptor (Homo sapiens); assay: as §1, with “HEK293” for “HEK293T”, “recruitment at 1 uM by measuring maximum efficacy” for “recruitment”; format: functional, cell membranes; settings: filed as agonist
[13] = biological target: T2, Type-2 angiotensin II receptor (Homo sapiens) (UniProt P50052); assay: Binding affinity to human GFP-tagged AT2R extracted from HEK293 cell membrane assessed as colocalization of AT2R in plasma membrane at 50 nM incubated for 30 mins by epifluorescence microscopic analysis; format: cell membranes; settings: filed as agonist
T2 sequence (whole entry): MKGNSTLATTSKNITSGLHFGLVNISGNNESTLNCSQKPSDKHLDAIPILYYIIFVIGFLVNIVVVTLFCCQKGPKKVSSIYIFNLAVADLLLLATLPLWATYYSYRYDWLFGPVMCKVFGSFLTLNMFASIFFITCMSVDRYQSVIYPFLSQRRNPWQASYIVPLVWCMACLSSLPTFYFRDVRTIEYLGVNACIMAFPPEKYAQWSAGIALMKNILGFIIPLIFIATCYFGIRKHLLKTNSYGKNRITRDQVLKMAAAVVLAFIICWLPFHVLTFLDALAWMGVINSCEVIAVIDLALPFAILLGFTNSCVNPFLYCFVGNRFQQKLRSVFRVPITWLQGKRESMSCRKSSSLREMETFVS

Compound: H-YFHPDVIR-OH
Activity (Cerebral artery [1]): inactive
Activity [2]: inactive
Activity ([3]; HEK293): inactive
Activity [4]: inactive

Activity [2]: inactive
Activity ([3]; HEK293): inactive
Activity [6]: 0.101
Activity [4]: inactive
Compound: CC[C@H](C)[C@H](NC(=O)[C@@H](NC(=O)[C@H](CC(=O)O)NC(=O)[C@@H]1CCCN1C(=O)[C@H](Cc1c[nH]cn1)NC(=O)[C@H](Cc1ccccc1)NC(=O)[C@H](Cc1ccc(O)cc1)NC(=O)CCCCCN1/C(=C\C=C\C2=[N+](C)c3ccccc3C2(C)C)C(C)(C)c2ccccc21)C(C)C)C(=O)N[C@@H](CCCNC(=N)N)C(=O)O (X1-YFHPDVIR-OH)
Activity (Cerebral artery [5]): Active

Activity [6]: 0.08
Compound: CC[C@H](C)[C@H](NC(=O)[C@H](Cc1ccc(O)cc1)NC(=O)[C@@H](NC(=O)[C@H](CCCNC(=N)N)NC(=O)[C@H](CC(=O)O)NC(=O)CCCCCN1/C(=C\C=C\C2=[N+](C)c3ccccc3C2(C)C)C(C)(C)c2ccccc21)C(C)C)C(=O)N[C@@H](Cc1c[nH]cn1)C(=O)N1CCC[C@H]1C(=O)N[C@@H](Cc1ccccc1)C(=O)O
Activity (Cerebral artery [7]): Active
Activity (Cerebral artery [8]): Active

Activity [9]: inactive
Activity ([2]; filed as agonist): Active
Activity [10]: Active
Emax [11]: 0.043 a.u.
Activity ([3]; HEK293, filed as agonist): Dose-dependent-effect
Emax [12]: 0.031 a.u.
Activity ([4]; filed as agonist): Dose-dependent-effect
Activity [13]: Active
Compound: CC[C@H](C)[C@H](NC(=O)[C@H](Cc1ccc(O)cc1)NC(=O)[C@@H](NC(=O)[C@H](CCCN=C(N)N)NC(=O)CNC)C(C)C)C(=O)N[C@@H](Cc1c[nH]cn1)C(=O)N1CCC[C@H]1C(=O)N[C@@H](C)C(=O)O
Activity (Cerebral artery [1]): inactive
